Measured values from patent US7635686B2, “Therapeutically useful triethyleneglycol cholesteryl oligonucleotides” (Bioniche Life Sciences, Inc., priority 2001, dated 2009).
{TEG-Chol} = cholesteryl attached through a triethylene glycol (TEG) linker

Legend:
[1] = system: EL-4 cells; assay: Activation of caspase 3 in EL-4 cells (PE-antibody flow cytometry); format: cell-based, murine; details: 53 μM, 72 hrs; for Percentage of cells containing activated caspase-3: EL-4 cells, untreated 3
Protocol: EL-4 cells (2.5×10^5 cells/ml) were incubated for 72 hrs with 0 μM (control), 53 μM of SEQ ID NO:3 or 53 μM of SEQ ID NO:7. After incubation, both control and treated cells were washed, fixed, permeabilized and incubated with a Phycoerythrin (PE)-conjugated antibody that recognizes the active catalytic unit of caspase 3 (Clone: C92-605; BD Pharmingen, San Diego, Calif., USA) using the conditions recommended by the manufacturer. Fluorescence associated with active caspase 3 was analyzed by flow cytometry on a FACSCALIBUR using the program CellQUEST (both from Becton Dickinson, San Jose, Calif., USA).

[2] = system: MDA-MB-231 cells; assay: MDA-MB-231 xenotransplanted tumors in nude mice (Example 22); format: in vivo; details: 0.5, 5, 50 mg/kg intravenously every 3 days, 6 doses maximum; versus saline and SEQ ID NO:3; dose-dependent
Protocol: MDA-MB-231 cells are xenotransplanted subcutaneously into nude mice. The mice are divided into 7 groups of 10 mice. After the tumors reach 5 mm in diameter, group 1 mice receive saline, group 2 mice receive 0.5 mg/kg SEQ ID NO:3, group 3 mice receive 5 mg/kg SEQ ID NO:3, group 4 mice receive 50 mg/kg SEQ ID NO:3, group 5 mice receive 0.5 mg/kg SEQ ID NO:7, group 6 mice receive 5 mg/kg SEQ ID NO:7, group 7 mice receive 50 mg/kg SEQ ID NO:7. Treatments are given intravenously every 3 days for 6 doses maximum. Mice are sacrificed when tumor reach 1 cm in diameter, at any sign of distress or at the end of the study (3 months from cell injection). Complete autopsies are performed. Tumor mass, presence of invasion and metastasis are determined.

[3] = system: EL-4 murine T lymphoma cells; assay: EL-4 lymphoma implanted subcutaneously in C57/BL6 mice; format: in vivo; details: 1, 10, 100 mg/kg, after 4 weeks of treatment; versus saline and SEQ ID NO:3; dose-dependent
Protocol: EL-4 murine T lymphoma cells are implanted subcutaneously into C57/BL6 mice as previously described (Krawczyk et al., Cancer Immunol. Immunother. 40:347, 1995). The mice are divided into 7 groups of 10 mice. On day 0, group 1 mice receive saline, group 2 mice receive 1 mg/kg SEQ ID NO:3, group 3 mice receive 10 mg/kg SEQ ID NO:3, group 4 mice receive 100 mg/kg SEQ ID NO:3, group 5 mice receive 1 mg/kg SEQ ID NO:7, group 6 mice receive 10 mg/kg SEQ ID NO:7, group 7 mice receive 100 mg/kg SEQ ID NO:7. After 4 weeks of treatment, the mice are sacrificed and tumor mass is determined.

[4] = system: Hs578T cells; assay: Cellular proliferation of Hs578T cells (Trypan blue exclusion count); format: cell-based, human; details: 53 μM; for Effect on cellular proliferation (in words): 72 hrs; for Percentage of changes in cellular proliferation compared to controls (mean ± s.d.): cultured for 3 days, + stimulation, − inhibition, three independent assays
Protocol: (§1) Either 20×10^3 MDA-MB-231 (MDA-231) or Hs578T cells were plated into individual wells of 24-well plates in regular culture medium (RCM) presence or absence (control) of 53 μM (final concentration) of SEQ ID NO:3, SEQ ID NO:7, 53 μM cholesteryl-TEG phosphoramidite, or corresponding control media (regular culture medium (RCM) for SEQ ID NO:3, RCM with the same amount of water as the amount added with the SEQ ID NO:7, and RCM with the same amount of acetonitrile as the amount added with cholesteryl-TEG phosphoramidite). Cells were cultured for 72 hrs, removed with trypsin and counted with an hemocytometer using the Trypan blue exclusion technique. Results of three independent assays (mean and standard deviation (s.d.) of percentage of changes compared to controls) are shown in Table 9.

[5] = system: MDA-MB-231 (MDA-231) cells; assay: Cellular proliferation of MDA-231 cells (Trypan blue exclusion count); format: cell-based, human; details: MDA-231, 53 μM; for Effect on cellular proliferation (in words): 72 hrs; for Percentage of changes in cellular proliferation compared to controls (mean ± s.d.): cultured for 3 days, + stimulation, − inhibition, three independent assays
Protocol: as §1

[6] = system: MDA-MB-231 cells; assay: MDA-MB-231 xenotransplanted tumors in nude mice (Example 23); format: in vivo; details: 0.4, 4, 40 mg/kg intravenously every 3 days, 6 doses maximum; versus saline and SEQ ID NO:3; dose-dependent
Protocol: Breast cancer MDA-MB-231 cells are xenotransplanted subcutaneously in nude mice (1×10^7 cells). The mice are divided into 7 groups of 10 mice. After the tumors reach […] in diameter, group 1 mice receive saline, group 2 mice receive 0.4 mg/kg SEQ ID NO:3, group 3 mice receive 4 mg/kg SEQ ID NO:3, group 4 mice receive 40 mg/kg SEQ ID NO:3, group 5 mice receive 0.4 mg/kg SEQ ID NO:7, group 6 mice receive 4 mg/kg SEQ ID NO:7, group 7 mice receive 40 mg/kg SEQ ID NO:7. Treatments are given intravenously every 3 days for 6 doses maximum. Mice are sacrificed when tumor reach 1 cm in diameter, at any sign of distress or at the end of the study (3 months from cell injection). Complete autopsies are performed. Tumor mass, presence of invasion and metastasis are determined.

[7] = system: EL-4 cells; assay: Cleavage of poly(ADP-ribose) polymerase in EL-4 cells (FITC-antibody flow cytometry); format: cell-based, murine; details: 53 μM, 72 h; for Percentage of cells containing cleaved PARP: EL-4 cells, untreated 1
Protocol: EL-4 cells (2.5×10^5 cells/ml) were incubated for 72 h with 0 μM (control), 53 μM of SEQ ID NO:3 or 53 μM of SEQ ID NO:7. After incubation, both control and treated cells were washed, fixed, permeabilized and incubated with an FITC-conjugated antibody that recognizes specifically the 85 kDa fragments of cleaved PARP (BioSource, Camarillo, Calif., USA) using the conditions recommended by the manufacturer. Fluorescence associated with cleaved PARP was analyzed by flow cytometry on a FACSCalibur using the program CellQUEST (both from Becton Dickinson). The percentage of cells containing cleaved PARP in EL-4 cells treated with 53 μM final concentration of sequences is shown in Table 5.

| Substance | Activation of caspase-3 in EL-4 cells (in words) [1] | Percentage of cells containing activated caspase-3 [1] [%] | Tumor mass [2] | Tumor mass [3] | Effect on cellular proliferation (in words) [4] | Percentage of changes in cellular proliferation compared to controls (mean ± s.d.) [4] [%] | Effect on cellular proliferation (in words) [5] | Percentage of changes in cellular proliferation compared to controls (mean ± s.d.) [5] | Tumor mass and metastasis [6] | Cleavage of PARP in EL-4 cells (in words) [7] | Percentage of cells containing cleaved PARP [7] [%] |
| --- | --- | --- | --- | --- | --- | --- | --- | --- | --- | --- | --- |
| 5′ OH-CCACCC(TEG-cholesteryl) 3′ (3' {TEG-Chol}, sugars by position and backbone not given here) [SEQ ID NO:7] | capacity to induce apoptosis as measured by the activation of caspase-3 | 38 | less tumor mass | less tumor mass | capacity to inhibit cellular proliferation | −91.8 ± 10.5 | capacity to inhibit cellular proliferation | −97.9 ± 2.5% | less tumor mass and metastasis | capacity to induce apoptosis as measured by cleavage of PARP | 84 |
| 5′ OH-CCACCC-OH 3′ (listed as DNA, chemistry not fully specified) [SEQ ID NO:3] | inactive | 4 | – | – | did not significantly affect cellular proliferation | −6.5 ± 5 | did not significantly affect cellular proliferation | +6.9 ± 5% | – | inactive | 1 |
